Data: patent US20150132339A1, “ADJUVANTED FORMULATIONS OF STR[…]” (NOVARTIS AG, priority 2012, published 2015)

What was measured:
Type in all cases: physicochemical
[1] = Adsorption of compound K2 to aluminium hydroxide adjuvant (Al—H); settings: Al—H 2 mg/ml
Procedure: (§1) To determine whether the K2 remains adsorbed to Al—H, compositions were prepared as above.

[2] = Degradation after formulation; settings: RrgB321 / K2 / Al—H formulation
Procedure: (§2) The combination of RrgB321 used in this study corresponds to a fusion between RrgB sequences from (3) Taiwan-23F (2) Finland 6B-12 (1) TIGR4, and thus comprises pili of clades III, II and I. Details of RrgB321 are provided in references 235 and 236. RrgB321 was expressed with a His tag. The final RrgB321 vaccine composition contains antigen (0.4 mg/ml), compound K2 (2 mg/ml), Al—H (2 mg/ml), NaCl (9 mg/ml), histidine buffer (10 mM, pH 6.5), formulation volume: 0.05 ml (in water).
as §1

[3] = Adsorption of RrgB321 to Al—H (SDS-PAGE)
Procedure: as §2, §1

Compound | compound K2 adsorbed to the Al—H ([1]; at all strengths) | K2 remains adsorbed to Al—H ([1]; HPLC, RrgB321 composition) | degradation patterns after formulation [2] | RrgB321 adsorption to Al—H ([3]; in the absence of K2) | RrgB321 adsorption to Al—H ([3]; in the presence of K2)
Cc1cc(OCCOCCOCCP(=O)(O)O)ccc1CCc1cnc2c(N)nc3cc(CCC(=O)O)ccc3c2c1 [compound K2, 3-(5-amino-2-(2-methyl-4-(2-(2-(2-phosphonoethoxy)ethoxy)ethoxy)phenethyl)benzo[f]-[1,7]naphthyridin-8-yl)propanoic acid] | > 95% | at least 97% | Neither antigen nor K2 showed detectable degradation patterns |  | 
RrgB321: fusion between RrgB sequences from Taiwan-23F, Finland 6B-12 and TIGR4 (clades III, II, I), e.g. SEQ ID NO: 250, His tag |  |  | Neither antigen nor K2 showed detectable degradation patterns | > 95% | approximately 50%
